From patent US9611289B2, “Farnesoid X receptor modulators” (Intercept Pharmaceuticals, Inc., priority 2013, dated 2017)
Converted amounts (≈) assume the structure as drawn.

Tests used:
[1] = biological target: LXRβ (Homo sapiens, UniProt P55055); assay: AlphaScreen nuclear receptor activation; type: biochemical
[2] = biological target: T1, PXR (Homo sapiens, UniProt O75469); assay: AlphaScreen nuclear receptor activation; type: biochemical
T1 sequence (O75469 1-434): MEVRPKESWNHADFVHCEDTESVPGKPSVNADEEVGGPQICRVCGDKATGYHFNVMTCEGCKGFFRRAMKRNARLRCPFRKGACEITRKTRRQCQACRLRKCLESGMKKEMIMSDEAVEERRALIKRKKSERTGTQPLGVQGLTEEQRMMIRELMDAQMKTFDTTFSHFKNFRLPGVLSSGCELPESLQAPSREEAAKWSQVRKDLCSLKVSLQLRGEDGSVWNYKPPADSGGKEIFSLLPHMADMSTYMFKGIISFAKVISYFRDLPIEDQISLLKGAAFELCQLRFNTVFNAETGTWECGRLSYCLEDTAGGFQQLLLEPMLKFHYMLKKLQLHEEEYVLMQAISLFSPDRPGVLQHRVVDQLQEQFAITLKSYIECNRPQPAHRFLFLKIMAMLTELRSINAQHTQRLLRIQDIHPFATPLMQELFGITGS

[3] = biological target: CAR (Homo sapiens, UniProt Q14994); assay: AlphaScreen nuclear receptor activation; type: biochemical
[4] = biological target: PPARα (Homo sapiens, UniProt Q07869); assay: AlphaScreen nuclear receptor activation; type: biochemical
[5] = biological target: PPARδ (Homo sapiens, UniProt Q03181); assay: AlphaScreen nuclear receptor activation; type: biochemical
[6] = biological target: PPARγ (Homo sapiens, UniProt P37231); assay: AlphaScreen nuclear receptor activation; type: biochemical
[7] = biological target: RARα (Homo sapiens, UniProt P10276); assay: AlphaScreen nuclear receptor activation; type: biochemical
[8] = biological target: VDR (Homo sapiens, UniProt P11473); assay: AlphaScreen nuclear receptor activation; type: biochemical
[9] = tested on: TR; assay: AlphaScreen nuclear receptor activation; type: biochemical
[10] = biological target: PR (Homo sapiens, UniProt P06401); assay: AlphaScreen nuclear receptor activation; type: biochemical
[11] = tested on: RXR; assay: AlphaScreen nuclear receptor activation; type: biochemical
[12] = biological target: GR (Homo sapiens, UniProt P04150); assay: AlphaScreen nuclear receptor activation; type: biochemical
[13] = tested on: FXR target genes; assay: Quantitative RT-PCR of FXR target genes in HepG2 cells; type: cell-based, human; details: 1 μM, overnight
[14] = Critical micellar concentration; type: physicochemical; details: […] NaCl water solution
[15] = Surface tension at CMC; type: physicochemical; details: […] NaCl water solution
[16] = tested on: ER
[17] = tested on: HepG2 cells; assay: cells; details: Homo sapiens, HepG2, read-out: Membrane integrity EC50 (μM) (LDH measure)
[18] = physchem; details: water
[19] = biological target: T2, CYP1A2 (Homo sapiens, UniProt P05177); assay: biochemical
T2 sequence (P05177 1-516): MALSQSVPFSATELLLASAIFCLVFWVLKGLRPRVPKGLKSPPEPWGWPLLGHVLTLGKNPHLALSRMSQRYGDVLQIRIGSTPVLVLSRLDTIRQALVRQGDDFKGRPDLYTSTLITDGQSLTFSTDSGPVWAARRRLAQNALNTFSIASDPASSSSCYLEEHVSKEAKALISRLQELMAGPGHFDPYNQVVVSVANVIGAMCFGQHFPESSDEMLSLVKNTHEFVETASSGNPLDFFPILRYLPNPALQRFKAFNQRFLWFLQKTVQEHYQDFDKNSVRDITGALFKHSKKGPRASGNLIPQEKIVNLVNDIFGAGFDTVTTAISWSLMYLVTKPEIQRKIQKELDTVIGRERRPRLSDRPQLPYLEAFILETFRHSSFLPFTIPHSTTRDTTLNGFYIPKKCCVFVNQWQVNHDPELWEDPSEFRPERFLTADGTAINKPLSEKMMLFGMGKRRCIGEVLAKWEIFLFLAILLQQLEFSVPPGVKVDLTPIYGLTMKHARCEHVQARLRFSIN

[20] = biological target: T3, CYP3A4 (Homo sapiens, UniProt P08684); assay: biochemical
[21] = biological target: CYP2C9 (Homo sapiens, UniProt P11712); assay: biochemical
[22] = biological target: CYP2C19 (Homo sapiens, UniProt P33261); assay: biochemical
[23] = biological target: CYP2D6 (Homo sapiens, UniProt P10635); assay: biochemical
[24] = biological target: CYP2E1 (Homo sapiens, UniProt P05181); assay: biochemical
[25] = biological target: hERG potassium channel (Homo sapiens, UniProt Q12809); assay: PREDICTOR hERG Fluorescence Polarization assay; details: CHO-hERG membrane preparations
[26] = 1-octanol-water partition coefficient (LogPA-); details: ionized species
[27] = biological target: T3, CYP3A4; assay: CYP450 inhibition, recombinant baculosomes, fluorescent signal; details: read-out: CYP3A4 (Green Substrate) IC50

For `CC[C@H]1[C@@H](O)[C@@H]2[C@H](CC[C@]3(C)[C@@H]([C@H](C)CCC(=O)O)CC[C@@H]23)[C@@]2(C)CC[C@@H](O)C[C@@H]12` [Compound A, 6α-ethyl-3α,7α-dihydroxy-5β-cholan-24-oic acid], the “LXRβ Activation EC50 (μM)” value [1] was “No activity”, the “PXR Activation EC50 (μM)” value [2] was “No activity” and the “CAR Activation EC50 (μM)” value [3] was “No activity”. For the same compound, the “PPARα Activation EC50 (μM)” value [4] was “No activity”, the “PPARδ Activation EC50 (μM)” value [5] was “No activity” and the “PPARγ Activation EC50 (μM)” value [6] was “No activity”. The “RARα Activation EC50 (μM)” value [7] was “No activity”, the “VDR Activation EC50 (μM)” value [8] was “No activity” and the “TR Activation EC50 (μM)” value [9] was “No activity”. For the same compound, the “PR Activation EC50 (μM)” value [10] was “No activity”, the “RXR Activation EC50 (μM)” value [11] was “No activity” and the “GR Activation EC50 (μM)” value [12] was “No activity”. The APOCII gene expression [13] was “up”, the BSEP gene expression [13] was “up” and the CYP7α1 gene expression [13] was “down”. For the same compound, the FGF-19 gene expression [13] was “up”, the MRP2 gene expression [13] was “up” and the OSTα gene expression [13] was “up”. For the same compound, the OSTβ gene expression [13] was “up”, the PEPCK gene expression [13] was “up” and the PLTP gene expression [13] was “up”. For the same compound, the PPARγ gene expression [13] was “up”, the SHP gene expression [13] was “up” and the SREBP-1C gene expression [13] was “down”. The UGT2B4 gene expression [13] was “up”, the “CMC(b) (mM) Critical Micellar Concentration” value [14] was 2.9 mM and the “STCMC(c) (Dyne/cm) Surface Tension at CMC” value [15] was 43.2-48.8 Dyne/cm. The “ER Activation EC50 (μM)” value [16] was “No activity”, the EC50 [17] was 190 ± 30 µM and the solubility [18] was 9 µM (≈ 3.79 µg/mL). The IC50 [19] was over 10 µM, the IC50 [20] was over 10 µM and the IC50 [21] was over 10 µM. The IC50 [22] was over 10 µM, the IC50 [23] was over 10 µM and the IC50 [24] was over 10 µM. The “block or inhibition of the hERG potassium channel” value [25] was “does not block or inhibit”, the “LogPA−(d) 1-octanol-water partition coefficient” value [26] was 2.5 and the IC50 [27] was over 10 µM.
